Data reported in patent US10173991B2, “Sulfone amide linked benzothiazole inhibitors of endothelial lipase” (BRISTOL-MYERS SQUIBB COMPANY, priority 2014, dated 2019).

Each compound was assayed against Endothelial lipase (EL) (Homo sapiens (Human), UniProt Q9Y5X9) (assay: Endothelial lipase (EL) enzymatic assay with fluorescent substrate A10070 in DMPG vesicles). Settings: not given.
Format: biochemical
Procedure, shortened: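 Vesicles prepared: A10070 dried with DMPG, resuspended in HEPES pH 8.0/NaCl/EDTA, sonicated on ice. Enzyme incubated with compound 30 min at 37° C. Reaction started with 1:10 diluted vesicles. Fluorescence (490/530 nm) followed 60 min; slope from 300–900 secs gives rate.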

Sequence of Endothelial lipase (EL) (Q9Y5X9 21-500): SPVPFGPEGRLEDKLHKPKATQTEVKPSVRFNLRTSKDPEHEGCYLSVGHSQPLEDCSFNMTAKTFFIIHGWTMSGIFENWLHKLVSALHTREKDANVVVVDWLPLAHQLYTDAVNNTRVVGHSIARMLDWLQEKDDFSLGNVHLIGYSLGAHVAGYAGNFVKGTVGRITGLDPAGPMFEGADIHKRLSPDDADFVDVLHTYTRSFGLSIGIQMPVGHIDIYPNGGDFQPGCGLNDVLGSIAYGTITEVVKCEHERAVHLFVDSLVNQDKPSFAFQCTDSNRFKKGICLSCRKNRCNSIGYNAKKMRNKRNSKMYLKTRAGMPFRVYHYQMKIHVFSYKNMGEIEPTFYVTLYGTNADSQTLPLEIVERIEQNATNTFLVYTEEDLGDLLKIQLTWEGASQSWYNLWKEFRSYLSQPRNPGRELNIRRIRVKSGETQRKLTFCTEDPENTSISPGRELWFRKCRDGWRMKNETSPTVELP

| IC50 | SMILES |
| --- | --- |
| 346 nM | CCOc1ncccc1-c1ccc2sc(C(C(=O)NCC(=O)NC3CC3)S(=O)(=O)CCOC)nc2c1 (stereo not drawn) [Example 87, N-[(cyclopropyl-carbamoyl)methyl]-2-[5-(2-ethoxypyridin-3-yl)-1,3-benzothiazol-2-yl]-2-(2-methoxyethane-sulfonyl) acetamide] |
| 40 nM | CS(=O)(=O)C(C(=O)NCC(=O)NC1CC1)c1nc2cc(-c3ccccc3)ccc2s1 (stereo not drawn) [Example 610, N-[(cyclopropyl-carbamoyl)methyl]-2-methanesulfonyl-2-(5-phenyl-1,3-benzothiazol-2-yl)acetamide] |
| 40 nM | COCCS(=O)(=O)C(C(=O)NCC(=O)NC1CC1)c1nc2cc(C)c(-c3cnnc(C)c3)cc2s1 (stereo not drawn) [Example 186, N-[(cyclopropyl-carbamoyl)methyl]-2-(2-methoxyethane-sulfonyl)-2-[5-methyl-6-(6-methylpyridazin-4-yl)-1,3-benzothiazol-2-yl]acetamide] |
| 3 nM | CS(=O)(=O)C(C(=O)NCC(=O)NC1CC1)c1nc2cc(F)c(-c3ccc(-c4ccccc4)nc3)cc2s1 (stereo not drawn) [Example 203, N-[(cyclopropyl-carbamoyl)methyl]-2-[5-fluoro-6-(6-phenylpyridin-3-yl)-1,3-benzothiazol-2-yl]-2-methanesulfonyl-acetamide] |
| 3 nM | CN(C)C(=O)Nc1ccc(-c2cc3sc(C(C(=O)NCC(=O)NC4CC4)S(=O)(=O)CCC(F)(F)F)nc3cc2F)cc1 (stereo not drawn) [Example 6, N-[(cyclopropyl-carbamoyl)methyl]-2-(6-{4-[(dimethyl-carbamoyl)amino]phenyl}-5-fluoro-1,3-benzothiazol-2-yl)-2-(3,3,3-trifluoropropane-sulfonyl) acetamide] |
| 2 nM | COC(=O)Nc1ccc(-c2cc(F)c3nc(C(C(=O)NCC(=O)NC4CC4)S(=O)(=O)N(C)C)sc3c2)cc1 (stereo not drawn) [Example 496, methyl N-{4-[2-({[(cyclopropyl-carbamoyl)methyl]carbamoyl} (dimethyl-sulfamoyl)methyl)-4-fluoro-1,3-benzothiazol-6-yl]phenyl} carbamate] |
| 97 nM | COCCS(=O)(=O)C(C(=O)NCC(=O)NC1CC1)c1nc2cc(-c3ccc(-c4nnn[nH]4)cc3)c(F)cc2s1 (stereo not drawn) [Example 128, N-[(cyclopropyl-carbamoyl)methyl]-2-{6-fluoro-5-[4-(1H-1,2,3,4-tetrazol-5-yl)phenyl]-1,3-benzothiazol-2-yl}-2-(2-methoxyethane-sulfonyl) acetamide] |
| 69 nM | COCCS(=O)(=O)C(C(=O)NCC(=O)NC1CC1)c1nc2cc(C(=O)N3CC(C)(OC)C3)c(F)cc2s1 (stereo not drawn) [Example 429, N-[(cyclopropyl-carbamoyl)methyl]-2-[6-fluoro-5-(3-methoxy-3-methylazetidine-1-carbonyl)-1,3-benzothiazol-2-yl}-2-(2-methoxyethane-sulfonyl)acetamide] |
| 6 nM | COCCS(=O)(=O)C(C(=O)NCC(=O)NC1CC1)c1nc2cc(-c3cnc(C)nc3)c(F)cc2s1 (stereo not drawn) [Example 346, N-[(cyclopropyl-carbamoyl)methyl]-2-[6-fluoro-5-(2-methylpyrimidin-5-yl)-1,3-benzothiazol-2-yl]-2-(2-methoxyethane-sulfonyl)acetamide] |

Continued, compound first:

| SMILES | IC50 |
| --- | --- |
| O=C(CNC(=O)C(c1nc2cc(F)c(-c3cccc(-n4cccn4)c3)cc2s1)S(=O)(=O)CCC(F)(F)F)NC1CC1 (stereo not drawn) [Example 137, N-[(cyclopropyl-carbamoyl)methyl]-2-{5-fluoro-6-[3-(1H-pyrazol-1-yl)phenyl]-1,3-benzothiazol-2-yl}-2-(3,3,3-trifluoropropane-sulfonyl) acetamide] | 1 nM |
| O=C(CNC(=O)C(c1nc2cc(F)c(-c3cncnc3)cc2s1)S(=O)(=O)c1ccc(F)c(F)c1)NC1CC1 (stereo not drawn) [Example 445, N-[(cyclopropyl-carbamoyl)methyl]-2-(3,4-difluorobenzene-sulfonyl)-2-[5-fluoro-6-(pyrimidin-5-yl)-1,3-benzothiazol-2-yl]acetamide] | 59 nM |
| COCCS(=O)(=O)C(C(=O)NCC(=O)NC1CC1)c1nc2cc(C(F)(F)F)c(-c3cnc(C)nc3)cc2s1 (stereo not drawn) [Example 178, N-[(cyclopropyl-carbamoyl)methyl]-2-(2-methoxyethane-sulfonyl)-2-[6-(2-methylpyrimidin-5-yl)-5-(trifluoromethyl)-1,3-benzothiazol-2-yl]acetamide] | 56 nM |
| Cc1cc(-c2cc3sc(C(C(=O)NCC(=O)NC4CC4)S(C)(=O)=O)nc3cc2F)ccn1 (stereo not drawn) [Example 250, N-[(cyclopropyl-carbamoyl)methyl]-2-[5-fluoro-6-(2-methylpyridin-4-yl)-1,3-benzothiazol-2-yl]-2-methanesulfonyl-acetamide] | 11 nM |
| CS(=O)(=O)C(C(=O)NCC(=O)NC1CC1)c1nc2cc(F)c(-c3ccc(-n4ccccc4=O)cc3)cc2s1 (stereo not drawn) [Example 200, N-[(cyclopropyl-carbamoyl)methyl]-2-{5-fluoro-6-[4-(2-oxo-1,2-dihydropyridin-1-yl)phenyl]-1,3-benzothiazol-2-yl}-2-methanesulfonyl-acetamide] | 8 nM |
| COCCS(=O)(=O)C(C(=O)NCC(=O)NC1CC1)c1nc2cc(F)c(-c3ccc(C)nc3)cc2s1 (stereo not drawn) [Example 158, N-[(cyclopropyl-carbamoyl)methyl]-2-[5-fluoro-6-(6-methylpyridin-3-yl)-1,3-benzothiazol-2-yl]-2-(2-methoxyethane-sulfonyl) acetamide] | 11 nM |
| CN(C)S(=O)(=O)C(C(=O)NCC(=O)NC1CC1)c1nc2cc(F)c(-c3ccc(-c4ccccn4)cc3)cc2s1 (stereo not drawn) [Example 508, N-[(cyclopropyl-carbamoyl)methyl]-2-(dimethyl-sulfamoyl)-2-{5-fluoro-6-[4-(pyridin-2-yl)phenyl]-1,3-benzothiazol-2-yl}acetamide] | 15 nM |
| CS(=O)(=O)C(C(=O)NCC(=O)NC1CC1)c1nc2cc(F)c(-c3ccc4c(c3)CC(=O)N4)cc2s1 (stereo not drawn) [Example 370, N-[(cyclopropyl-carbamoyl)methyl]-2-[5-fluoro-6-(2-oxo-2,3-dihydro-1H-indol-5-yl)-1,3-benzothiazol-2-yl]-2-methanesulfonyl-acetamide] | 5 nM |
| CN(C)S(=O)(=O)C(C(=O)NCC(=O)NC1CC1)c1nc2c(F)cc(-c3ccc4[nH]c(=O)ccc4c3)cc2s1 (stereo not drawn) [Example 492, N-[(cyclopropyl-carbamoyl)methyl]-2-(dimethyl-sulfamoyl)-2-[4-fluoro-6-(2-oxo-1,2-dihydroquinolin-6-yl)-1,3-benzothiazol-2-yl]acetamide] | 5 nM |
| CC1(O)CN(C(=O)c2ccc(-c3ccc4nc(C(C(=O)NCC(=O)NC5CC5)S(=O)(=O)c5ccccc5)sc4c3)cc2)C1 (stereo not drawn) [Example 402, 2-(benzenesulfonyl)-N-[(cyclopropyl-carbamoyl)methyl]-2-{6-[4-(3-hydroxy-3-methylazetidine-1-carbonyl)phenyl]-1,3-benzothiazol-2-yl}acetamide] | 6 nM |

Same assay, conditions: EL from conditioned media of HT-1080 cells; 30 min preincubation at 37° C.

| IC50 | SMILES |
| --- | --- |
| 0.9 nM | O=C(CCc1ccccc1)Nc1ccc(-c2cc3sc(C(C(=O)NCC(=O)NC4CC4)S(=O)(=O)CCC(F)(F)F)nc3cc2F)cc1 (stereo not drawn) [Example 575, N-{4-[2-({[(Cyclopropylcarbamoyl)methyl]carbamoyl}(3,3,3-trifluoropropanesulfonyl)methyl)-5-fluoro-1,3-benzothiazol-6-yl]phenyl}-3-phenylpropanamide] |
| 2.9 nM | CC(C)OCCNC(=O)CNC(=O)C(c1nc2ccc(-c3ccc4c(c3)CNC4=O)cc2s1)S(C)(=O)=O (stereo not drawn) [Example 287, N-(2-((2-Isopropoxyethyl)amino)-2-oxoethyl)-2-(methylsulfonyl)-2-(6-(1-oxoisoindolin-5-yl)benzo[d]thiazol-2-yl)acetamide] |
